According to the NIST ThermoML archive (doi:10.1021/je7003929):

Experiment: xn = mol fraction of the nth substance listed
Settings: Liquid, Vibrating tube method

c1ccc2sccc2c1 [benzo[b]thiophene] + CCCCCC
Settings	mass density [kg/m3]
332.9 K, 1028 kPa, x2 = 0.4495	892.5
332.9 K, 2010 kPa, x2 = 0.4495	893.2
332.9 K, 3021 kPa, x2 = 0.4495	894.1
332.9 K, 4018 kPa, x2 = 0.4495	895.3
332.9 K, 5018 kPa, x2 = 0.4495	896.2
332.9 K, 6008 kPa, x2 = 0.4495	897
332.9 K, 7019 kPa, x2 = 0.4495	897.9
332.9 K, 8016 kPa, x2 = 0.4495	898.8
332.9 K, 9023 kPa, x2 = 0.4495	899.8
332.9 K, 10018 kPa, x2 = 0.4495	900.7
332.9 K, 11007 kPa, x2 = 0.4495	901.6
332.9 K, 12010 kPa, x2 = 0.4495	902.4
332.9 K, 13019 kPa, x2 = 0.4495	903.3
332.9 K, 14015 kPa, x2 = 0.4495	904.2
332.9 K, 15019 kPa, x2 = 0.4495	905
332.9 K, 16002 kPa, x2 = 0.4495	905.9
332.9 K, 17014 kPa, x2 = 0.4495	906.7
332.9 K, 18017 kPa, x2 = 0.4495	907.5
332.9 K, 19023 kPa, x2 = 0.4495	908.3
332.9 K, 20028 kPa, x2 = 0.4495	909.1
342.55 K, 1028 kPa, x2 = 0.2588	982.2
342.55 K, 2013 kPa, x2 = 0.2588	983.1
342.55 K, 3013 kPa, x2 = 0.2588	983.8
342.55 K, 4017 kPa, x2 = 0.2588	984.7
342.55 K, 5024 kPa, x2 = 0.2588	985.5
342.55 K, 6012 kPa, x2 = 0.2588	986.3
342.55 K, 7004 kPa, x2 = 0.2588	987.1
342.55 K, 8017 kPa, x2 = 0.2588	987.9
342.55 K, 9012 kPa, x2 = 0.2588	988.7
342.55 K, 10016 kPa, x2 = 0.2588	989.5
342.55 K, 11015 kPa, x2 = 0.2588	990.4
342.55 K, 12022 kPa, x2 = 0.2588	991.2
342.55 K, 13030 kPa, x2 = 0.2588	992
342.55 K, 14011 kPa, x2 = 0.2588	992.8
342.55 K, 15020 kPa, x2 = 0.2588	993.6
342.55 K, 16020 kPa, x2 = 0.2588	994.3
342.55 K, 17017 kPa, x2 = 0.2588	995.1
342.55 K, 18008 kPa, x2 = 0.2588	995.8
342.55 K, 19011 kPa, x2 = 0.2588	996.6
342.55 K, 20013 kPa, x2 = 0.2588	997.4
342.63 K, 1018 kPa, x2 = 0.0629	1085.6
342.63 K, 2039 kPa, x2 = 0.0629	1086.3
342.63 K, 3009 kPa, x2 = 0.0629	1087
342.63 K, 4022 kPa, x2 = 0.0629	1087.8
342.63 K, 5025 kPa, x2 = 0.0629	1088.5
342.63 K, 5925 kPa, x2 = 0.0629	1089.1
342.63 K, 7031 kPa, x2 = 0.0629	1089.9
342.63 K, 8009 kPa, x2 = 0.0629	1090.6
342.63 K, 9007 kPa, x2 = 0.0629	1091.3
342.63 K, 10024 kPa, x2 = 0.0629	1092
342.63 K, 11013 kPa, x2 = 0.0629	1092.7
342.63 K, 12012 kPa, x2 = 0.0629	1093.4
342.63 K, 13000 kPa, x2 = 0.0629	1094.1
342.63 K, 14019 kPa, x2 = 0.0629	1094.8
342.63 K, 15027 kPa, x2 = 0.0629	1095.4
342.63 K, 16019 kPa, x2 = 0.0629	1096.1
342.63 K, 17009 kPa, x2 = 0.0629	1096.8
342.63 K, 18015 kPa, x2 = 0.0629	1097.5
342.63 K, 19019 kPa, x2 = 0.0629	1098.2
342.63 K, 20018 kPa, x2 = 0.0629	1098.8
342.71 K, 1025 kPa, x2 = 0.9432	640.4
342.71 K, 2014 kPa, x2 = 0.9432	641.8
342.71 K, 3011 kPa, x2 = 0.9432	643.3
342.71 K, 4027 kPa, x2 = 0.9432	644.8
342.71 K, 5014 kPa, x2 = 0.9432	646.2
342.71 K, 6027 kPa, x2 = 0.9432	647.6
342.71 K, 7019 kPa, x2 = 0.9432	649
342.71 K, 8015 kPa, x2 = 0.9432	650.3
342.71 K, 9010 kPa, x2 = 0.9432	651.6
342.71 K, 10003 kPa, x2 = 0.9432	652.9
342.71 K, 11017 kPa, x2 = 0.9432	654.2
342.71 K, 12006 kPa, x2 = 0.9432	655.4
342.71 K, 13024 kPa, x2 = 0.9432	656.7
342.71 K, 14021 kPa, x2 = 0.9432	657.8
342.71 K, 15006 kPa, x2 = 0.9432	659
342.71 K, 16015 kPa, x2 = 0.9432	660.2
342.71 K, 17016 kPa, x2 = 0.9432	661.3
342.71 K, 18000 kPa, x2 = 0.9432	662.4
342.71 K, 19034 kPa, x2 = 0.9432	663.6
342.71 K, 20012 kPa, x2 = 0.9432	664.6
342.72 K, 1034 kPa, x2 = 0.7491	734.5
342.72 K, 2000 kPa, x2 = 0.7491	735.8
342.72 K, 3023 kPa, x2 = 0.7491	737
342.72 K, 4016 kPa, x2 = 0.7491	738.2
342.72 K, 5014 kPa, x2 = 0.7491	739.5
342.72 K, 6014 kPa, x2 = 0.7491	740.7
342.72 K, 7019 kPa, x2 = 0.7491	741.8
342.72 K, 8012 kPa, x2 = 0.7491	743
342.72 K, 9010 kPa, x2 = 0.7491	744.1
342.72 K, 10013 kPa, x2 = 0.7491	745.3
342.72 K, 11016 kPa, x2 = 0.7491	746.4
342.72 K, 12016 kPa, x2 = 0.7491	747.5
342.72 K, 13011 kPa, x2 = 0.7491	748.6
342.72 K, 14001 kPa, x2 = 0.7491	749.6
342.72 K, 15003 kPa, x2 = 0.7491	750.7
342.72 K, 16025 kPa, x2 = 0.7491	751.7
342.72 K, 17012 kPa, x2 = 0.7491	752.8
342.72 K, 18018 kPa, x2 = 0.7491	753.8
342.72 K, 19008 kPa, x2 = 0.7491	754.7
342.72 K, 20017 kPa, x2 = 0.7491	755.8
342.79 K, 1022 kPa, x2 = 0.4495	883.3
342.79 K, 2032 kPa, x2 = 0.4495	884.3
342.79 K, 3024 kPa, x2 = 0.4495	885.3
342.79 K, 4029 kPa, x2 = 0.4495	886.4
342.79 K, 5019 kPa, x2 = 0.4495	887.3
342.79 K, 6019 kPa, x2 = 0.4495	888.3
342.79 K, 7035 kPa, x2 = 0.4495	889.3
342.79 K, 8022 kPa, x2 = 0.4495	890.2
342.79 K, 9016 kPa, x2 = 0.4495	891.1
342.79 K, 10010 kPa, x2 = 0.4495	892
342.79 K, 11010 kPa, x2 = 0.4495	893
342.79 K, 12024 kPa, x2 = 0.4495	893.9
342.79 K, 13001 kPa, x2 = 0.4495	894.8
342.79 K, 14017 kPa, x2 = 0.4495	895.7
342.79 K, 15021 kPa, x2 = 0.4495	896.6
342.79 K, 16020 kPa, x2 = 0.4495	897.4
342.79 K, 17009 kPa, x2 = 0.4495	898.3
342.79 K, 18009 kPa, x2 = 0.4495	899.2
342.79 K, 19011 kPa, x2 = 0.4495	900
342.79 K, 20011 kPa, x2 = 0.4495	900.9
352.33 K, 1030 kPa, x2 = 0.2588	973.2
352.33 K, 2012 kPa, x2 = 0.2588	973.9
352.33 K, 3021 kPa, x2 = 0.2588	974.8
352.33 K, 4018 kPa, x2 = 0.2588	975.8
352.33 K, 5020 kPa, x2 = 0.2588	976.6
352.33 K, 6024 kPa, x2 = 0.2588	977.6
352.33 K, 7016 kPa, x2 = 0.2588	978.5
352.33 K, 8000 kPa, x2 = 0.2588	979.3
352.33 K, 9020 kPa, x2 = 0.2588	980.2
352.33 K, 10010 kPa, x2 = 0.2588	981
352.33 K, 11018 kPa, x2 = 0.2588	981.9
352.33 K, 12012 kPa, x2 = 0.2588	982.7
352.33 K, 13013 kPa, x2 = 0.2588	983.5
352.33 K, 14007 kPa, x2 = 0.2588	984.3
352.33 K, 15016 kPa, x2 = 0.2588	985.2
352.33 K, 16012 kPa, x2 = 0.2588	986
352.33 K, 17013 kPa, x2 = 0.2588	986.8
352.33 K, 18003 kPa, x2 = 0.2588	987.6
352.33 K, 19011 kPa, x2 = 0.2588	988.4
352.33 K, 20014 kPa, x2 = 0.2588	989.1
